Patent publication US20240156920A1, “COMPOSITIONS COMPRISING HYALURONIDASE AND/OR COLLAGENASE AND/OR 4-METHYLUMBELLIFERONE (4-MU) AND METHODS OF TREATMENT USING SAME” (STANDARD OF CARE CORPORATION, priority 2019, published 2024)

Tests used:
[1] = system: patient with peri-orbital puffiness due to edema; experiment: Treatment of peri-orbital puffiness due to peri-orbital edema using 4-MU (Example 5); assay type: in vivo, human
Method: A patient with peri-orbital puffiness due to edema (edema not due to a hyaluronic acid filler) of the peri-orbital soft tissues or edema of the eyelid fat pads was treated with a composition comprising 25 mg/mL 4-methylumbelliferone (4-MU). Briefly, four injections were administered in the peri-orbital soft tissues and edematous orbital fat pads. The injections were performed using a 0.5 ml syringe having a 32-gauge needle inserted parallel to the globe, angling away from the globe, to avoid injury to the globe. An improvement in the extent of peri-orbital puffiness due to peri-orbital edema was observed within the first 15-60 minutes after the injections. […] Although there was recurrence of some of the edema, there was an improvement up to 3 months.

[2] = system: patient with peri-orbital puffiness due to edema; experiment: Treatment of peri-orbital puffiness due to peri-orbital edema using a hyaluronidase (Example 2); assay type: in vivo, human; settings: four injections, 10 units in each fat pad
Method: A patient with peri-orbital puffiness due to edema (edema not due to a hyaluronic acid filler) of the peri-orbital soft tissues or edema of the eyelid fat pads was treated with a composition comprising a hyaluronidase (e.g., Hylenex). Briefly, four injections were administered in the peri-orbital soft tissues and edematous orbital fat pads using a dosage of 10 units injected in each fat pad (in the case of edema of the fat pads). The injections were performed using a 0.5 ml syringe having a 32-gauge needle inserted parallel to the globe, angling away from the globe, to avoid injury to the globe.
An improvement in the extent of peri-orbital puffiness due to peri-orbital edema was observed within the first 15-60 minutes after the injections. […] Although there was recurrence of some of the edema, there was an improvement up to 3 months.

[3] = system: patients with inflammation due to stasis dermatitis; experiment: Treatment of inflammation due to stasis dermatitis, severity grade (Example 6); assay type: in vivo, human; set-up: key: 4 (severe); 3 (moderate); 2 (mild); 1 (quiescent); 0 (normal); settings: one week after treatment, 500 units at five points on the ankle
Method: Patients with inflammation due to stasis dermatitis (Patient A, B, and C) on their lower legs were treated with Hylenex and the change in severity of their inflammation was measured after treatment.
Briefly, the severity of inflammation on a target area of each patient's ankle was first graded on the following scale: 4 (severe), 3 (moderate), 2 (mild), 1 (quiescent), or 0 (normal). Patient A scored a 4 prior to treatment, Patient B scored a 3 prior to treatment, and Patient C scored a 3 prior to treatment.
Next, 500 units of hylenex was injected at five different points into an area on each patient's ankle. The injections were performed using a 0.5 ml syringe having a 32-gauge needle. All patients were followed post injection, at one day and one week. Patient A's inflammation was classified as a 2 one week after treatment, Patient B's inflammation was classified as a 2 one week after treatment, and Patient C's inflammation was classified as a 2 one week after treatment.

[4] = system: patients with lower eyelid puffiness; experiment: Treatment of lower eyelid puffiness with hyaluronidase and collagenase, visual assessment (Example 7); assay type: in vivo, human; settings: one patient per composition; 100 U to each of five sites in the lower eyelid fat pads; assessed 2 weeks to 1 year after administration
Method: Patient A (a person), Patent B (a person), and Patent C (a person) presented with lower eyelid puffiness.
Briefly, Patient A was administered a composition comprising Hylenex by injections of 100 U to each of five sites in the lower eyelid fat pads, Patient B was administered a composition comprising a collagenase by injections of 100 U to each of five sites in the lower eyelid fat pads, and Patient C was administered a composition comprising Hylenex and a collagenase by injections of 100 U to each of five sites in the lower eyelid fat pads. The injections were performed using a 0.5 ml syringe having a 32-gauge needle.
Each patient's lower eyelid puffiness was visually assessed 2 weeks, 1 month, 2 months, 4 months, 6 months, and 1 year after administration of the compositions.

[5] = system: patients with scleroderma on their arms; experiment: Treatment of fibrosis (scleroderma on arms), severity grade (Example 8); assay type: in vivo, human; settings: five patients; average prior to treatment moderate; five injection points in a 10×10 cm area; followed one day to six months
Method: Five patients with scleroderma on their arms were treated with Hylenex and the change in severity of their fibrosis was measured after treatment. Briefly, the severity of scleroderma on a target area of on each patient was first graded using as either severe, moderate, mild, or none. Overall scores for patients' arms prior to treatment averaged as moderate.
Next, Hylenex was injected at five different points into a 10×10 cm area of scleroderma on the patient's arm. The injections were performed using a 0.5 ml syringe having a 32-gauge needle. All patients were followed post injection, at one day, one week, one, three, and six months.

Demyelinated neurons = experiment: Treatment of demyelinated neurons in culture, microscopy (Example 9); assay type: cell-based; settings: 10 U/mL; after 14 days; 24-well plate
Method: Demyelinated neurons were grown to confluence in culture and then transferred to a 24-well cell culture plate (Sigma) in a volume of 2 mL. 10 U/mL of Hylenex was added to each well.

patients with jowls = experiment: Treatment of jowls, severity grade (Example 10); assay type: in vivo, human; settings: Patients A, B and C, injected at seven points
Method: Patients with jowls (Patient A, B, and C) were treated with Hylenex and the change in severity of their jowls was measured after treatment. Briefly, the severity of jowls in Patients A-C was assessed on a scale of severe, moderate or mild. Patient A and B presented with severe jowls while Patient C presented with mild jowls.
Next, Hylenex was injected at seven different points into an area of skin on each patients with jowls. The injections were performed using a 0.5 ml syringe having a 32-gauge needle. All patients were followed post injection, at one day, one week, one, three, and six months.

[6] = system: patients with peri-orbital puffiness due to edema of the eyelid fat pads; experiment: Treatment of peri-orbital puffiness due to peri-orbital edema using HYLENEX, PEFAS and Subjective Patient Score (Example 12); assay type: in vivo, human
From the text: The Peri-orbital and Eyelid Fullness Assessment Scale (PEFAS or Sweis-Scale) defines the etiology of the upper and/or lower eyelid fullness to determine the best and safest course of treatment. It determines whether the fullness is secondary to pseudoherniation of the upper and/or lower eyelid fat pads, secondary to edema of the eyelid soft tissues, secondary to edema of the fat pads, or secondary to a combination of pseudoherniation of the fat pads with edema of the fat pads, and/or edema of the peri-orbital soft tissues. The PEFAS score is represented as the findings in the right upper eyelid/the findings in the lower eyelid and the findings in the left upper eyelid/the findings in the lower eyelid.
Four patients (Patients A-D) with peri-orbital puffiness due to edema (as identified in Example 1) of the eyelid fat pads were scored as a Grade 1E, 2E, 3E, or 3+E on the Peri-orbital Fullness Assessment Scale. A score was given to the upper and lower eyelids in the patient's left and right eye. Patient A's eyes were scored on the PEFAS scale as a L 0/3E (left eye; upper eyelid over lower eyelid) and a R 0/3E (right eye; upper eyelid over lower eyelid). Patient B was scored as a L 2E/2E and a R 2E/2E. Patient C was scored as a L 1/3E and a R 0/3E and Patient D was scored as a L 2E/3+E and a R 2E/3+E.
The patients were subsequently treated with HYLENEX. […] The injections were performed using a 0.5 ml syringe having a 31-gauge needle inserted parallel to the globe, angling away from the globe, to avoid injury to the globe. Specifically, three injections were made into the medial eyelid fat pad, two into the central eyelid fat pad, and three into the lateral eyelid fat pad at a depth of about 6 mm, 8 mm, and 6 mm, respectively. Additionally Patients B and C received 3 to 5 injections in the peri-orbital soft tissues (e.g., the malar region) at a depth of between about 5 to about 10 mm.
After treatment, Patient C was followed for 1 month, Patient D was followed for 2 months, and Patients A and B were followed for 3 months.
After treatment, the patient's eyes were scored on the PEFAS scale. Patient A's eyes were scored on the PEFAS scale as a L 0/0 (left eye; upper eyelid over lower eyelid) and a R 0/0E (right eye; upper eyelid over lower eyelid). Patient B was scored as a L 2E/1E and a R 2E/1. Patient C was scored as a L 1E/1E and a R 0/1 and Patient D was scored as a L 2E/0E and a R 2E/0.
Each patient was given an initial Subjective Patient Score of 10. The Subjective Patient Score is based on a scale of 1 to 10 with 10 being the subject's observed starting amount of peri-orbital puffiness and 0 being no puffiness. Each of the patients scored their puffiness between as a 3 or 4 at 2 weeks, 3 months, and 6 months after their initial treatment.

Compound | adverse effects ([1]; one patient followed for 6 months, 25 mg/mL, four injections) | duration of overall reduction in peri-orbital puffiness due to peri-orbital edema compared to pre-treatment ([1]; one patient followed for 6 months, 25 mg/mL, four injections, recurrence of some of the edema) | time after the injections within which an improvement in the extent of peri-orbital puffiness due to peri-orbital edema was observed ([1]; one patient, four injections of a composition comprising 25 mg/mL) [min] | adverse effects ([2]; one patient followed for 6 months) | duration of overall reduction in peri-orbital puffiness due to peri-orbital edema compared to pre-treatment ([2]; one patient followed for 6 months, recurrence of some of the edema) | time after the injections within which an improvement in the extent of peri-orbital puffiness due to peri-orbital edema was observed ([2]; one patient) [min] | severity of inflammation (scale 0-4) after treatment ([3]; Patient A, 4 prior to treatment) | severity of inflammation (scale 0-4) after treatment ([3]; Patient B, 3 prior to treatment) | severity of inflammation (scale 0-4) after treatment ([3]; Patient C, 3 prior to treatment) | lower eyelid puffiness, visual assessment [4] | overall severity score of scleroderma post-treatment (severe, moderate, mild, none) [5] | myelination of neurons by microscopy (Demyelinated neurons) | duration of effect on jowls (patients with jowls) | severity of jowls (severe, moderate or mild) after treatment (patients with jowls; one day after treatment, A and B severe, C mild before) | PEFAS score after treatment (upper eyelid over lower eyelid) ([6]; Patient A, left eye, L 0/3E before treatment) | PEFAS score after treatment (upper eyelid over lower eyelid) ([6]; Patient C, right eye, R 0/3E before treatment) | adverse effects ([6]; Patients A-D followed for up to 6 months, 30U per fat pad) | time over which a reduction in peri-orbital puffiness is still exhibited ([6]; Patients A-D, 30U per fat pad) | time after the injections within which an improvement in the extent of peri-orbital puffiness was exhibited ([6]; each of Patients A-D, 30U per peri-orbital fat pad exhibiting edema) [min] | peri-orbital (eye) puffiness compared to pre-treatment ([6]; each of Patients A-D, followed 1 month (C), 2 months (D), 3 months (A and B), 30U per fat pad)
Cc1cc(=O)oc2cc(O)ccc12 [4-methylumbelliferone] | without any adverse effects | up to 3 months | 15 to 60 | – | – | – | – | – | – | – | – | – | – | – | – | – | – | – | – | –
Hylenex: recombinant preparation of human hyaluronidase; soluble fragment of human hyaluronidase (PH20), 447 amino acids, SEQ ID NO: 1 | – | – | – | without any adverse effects | up to 3 months | 15 to 60 | 2 | 2 | 2 | reduction in lower eyelid puffiness | mild | remyelinated neurons | more than six months | mild jowls | 0/0 | 0/1 | without any adverse effects | up to 6 months | 15 to 60 | marked reduction
collagenase | – | – | – | – | – | – | – | – | – | did not exhibit any reduction in lower eyelid puffiness | – | – | – | – | – | – | – | – | – | –
